Structures can show the parent of a compound that is named as a salt.
How the values were obtained:
[1] = test system: LTB4 production in murine blood (LTA4H); test: LTB4 production by calcium ionophore-stimulated murine blood for LTA4H inhibitor activity; assay type: cell-based, CD-1 mice; details: Mus musculus; murine blood diluted 1 in 15, A23187 stimulated; single determination or average; mark after value = form tested: ′ free base, ″ hydrochloride, ^ formate; read-out: IC50
Method in brief: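 LTB4 was measured by ELISA in supernatants after calcium ionophore A23187 stimulation (final 7 μg/mL, 30 min, 37° C) of CD-1 mouse blood collected on heparin. Compound was preincubated with the blood for 15 min beforehand. Values come from one determination or average several.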

[2] = molecular target: T1, recombinant human LTA4 hydrolase (rhLTA4H) (Homo sapiens, UniProt P09960); test: Recombinant human LTA4 hydrolase assay for LTA4 hydrolase inhibitor activity; assay type: biochemical; details: rhLTA4H, LTB4 by immunoassay; single determination or average of two or more; mark after value = form tested: ′ free base, ″ hydrochloride, ^ formate; read-out: IC50
T1 construct: made in house; host or cells: Spodoptera frugiperda (Sf-9) cells, baculovirus (pFastBac1)
T1 sequence (P09960 1-611): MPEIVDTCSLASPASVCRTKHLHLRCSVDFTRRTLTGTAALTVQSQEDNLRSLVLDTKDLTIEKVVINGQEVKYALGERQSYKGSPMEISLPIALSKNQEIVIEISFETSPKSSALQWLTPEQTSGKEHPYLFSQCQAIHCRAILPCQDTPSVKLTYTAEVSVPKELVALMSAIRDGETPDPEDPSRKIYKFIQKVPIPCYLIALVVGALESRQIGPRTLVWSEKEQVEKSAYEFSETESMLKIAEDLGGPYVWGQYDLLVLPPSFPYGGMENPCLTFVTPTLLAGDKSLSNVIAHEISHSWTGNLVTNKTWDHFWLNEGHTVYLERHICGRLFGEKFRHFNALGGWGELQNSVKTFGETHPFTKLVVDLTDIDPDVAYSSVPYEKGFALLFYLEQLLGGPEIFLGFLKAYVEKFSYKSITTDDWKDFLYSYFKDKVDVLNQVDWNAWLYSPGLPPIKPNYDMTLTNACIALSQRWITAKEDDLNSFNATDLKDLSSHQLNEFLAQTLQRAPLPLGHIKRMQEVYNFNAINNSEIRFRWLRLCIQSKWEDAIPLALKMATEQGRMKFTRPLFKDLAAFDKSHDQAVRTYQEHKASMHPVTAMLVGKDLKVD
Method in brief: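 LTB4 formation, measured by enzyme immunoassay, was the read-out. The enzyme, recombinant human LTA4H expressed in Sf-9 insect cells (10 ng per reaction), was exposed to compound for 10 min at room temperature before hydrolysed-ester LTA4 substrate was added for 30 min. Enzyme-free negatives were included.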

| SMILES | IC50 [1] [nM] | IC50 [2] [nM] |
| --- | --- | --- |
| O=C(O)C1CCN(Cc2coc3cc(Oc4nc5ncccc5s4)ccc23)CC1 [Example 249, 1-[6-(Thiazolo[4,5-b]pyridin-2-yloxy)-benzofuran-3-ylmethyl]-piperidine-4-carboxylic acid] | 54 | 12 |
| CC(=O)NC1CCN(Cc2coc3cc(Oc4nc5ncc(C)cc5s4)ccc23)CC1 [Example 251, N-{1-[6-(6-Methyl-thiazolo[4,5-b]pyridin-2-yloxy)-benzofuran-3-ylmethyl]-piperidin-4-yl}-acetamide formate] | 220 | 27 |
| CC(=O)NC1CCN(Cc2coc3cc(Oc4nc5nccc(C)c5s4)ccc23)CC1 [Example 252, N-{1-[6-(7-Methyl-thiazolo[4,5-b]pyridin-2-yloxy)-benzofuran-3-ylmethyl]-piperidin-4-yl}-acetamide formate] | 48 | 24 |
| CC(=O)NC1CCN(Cc2coc3cc(Oc4nc5nccnc5s4)ccc23)CC1 [Example 253, N-{1-[6-(Thiazolo[4,5-b]pyrazin-2-yloxy)-benzofuran-3-ylmethyl]-piperidin-4-yl}-acetamide formate] | 91 | 39 |
| CC(=O)NC1CCN(Cc2coc3cc(Oc4nc5ncc(F)cc5s4)ccc23)CC1 [Example 255, N-{1-[6-(6-Fluoro-thiazolo[4,5-b]pyridin-2-yloxy)-benzofuran-3-ylmethyl]-piperidin-4-yl}-acetamide formate] | 72 | 31 |
| CC(=O)N1CCN(Cc2cc3cc(Oc4nc5ncccc5s4)ccc3o2)CC1 [Example 259, 1-{4-[5-(Thiazolo[4,5-b]pyridin-2-yloxy)-benzofuran-2-ylmethyl]-piperazin-1-yl}ethanone formate] | 74 | 5 |
| c1cnc2nc(Oc3ccc4c(CN5CCC6CCCCC6C5)coc4c3)sc2c1 (stereo not drawn) [Example 266, 2-[6-(Thiazolo[4,5-b]pyridin-2-yloxy)-benzofuran-3-ylmethyl]-decahydro-isoquinoline formate] | 100 | 2 |
| c1cnc2nc(Oc3ccc4c(CN5CCCC6CCCCC65)coc4c3)sc2c1 (stereo not drawn) [Example 267, 1-[6-(Thiazolo[4,5-b]pyridin-2-yloxy)-benzofuran-3-ylmethyl]-decahydro-quinoline formate] | 44 | 9 |
| OC1CCN(Cc2coc3cc(Oc4nc5ncccc5s4)ccc23)CC1 [Example 268, 1-[6-(Thiazolo[4,5-b]pyridin-2-yloxy)-benzofuran-3-ylmethyl]-piperidin-4-ol] | 150 | 8 |
| FC1CCN(Cc2coc3cc(Oc4nc5ncccc5s4)ccc23)CC1 [Example 270, 2-[3-(4-Fluoro-piperidin-1-ylmethyl)-benzofuran-6-yloxy]-thiazolo[4,5-b]pyridine formate] | 100 | 26 |
| COC1CCN(Cc2coc3cc(Oc4nc5ncccc5s4)ccc23)CC1 [Example 271, 2-[3-(4-Methoxy-piperidin-1-ylmethyl)-benzofuran-6-yloxy]-thiazolo[4,5-b]pyridine formate] | 79 | 5 |
| O=C1CCCCN1C1CCN(Cc2coc3cc(Oc4nc5ncccc5s4)ccc23)CC1 [Example 272, 1′-[6-(Thiazolo[4,5-b]pyridin-2-yloxy)-benzofuran-3-ylmethyl]-[1,4′]bipiperidinyl-2-one formate] | 15 | 5 |
| OC1(c2ccccc2)CCN(Cc2coc3cc(Oc4nc5ncccc5s4)ccc23)CC1 [Example 275, 4-Phenyl-1-[6-(thiazolo[4,5-b]pyridin-2-yloxy)-benzofuran-3-ylmethyl]-piperidin-4-ol] | 34 | 2 |
| O=C(C1CC1)N1CCN(Cc2coc3cc(Oc4nc5ncccc5s4)ccc23)CC1 [Example 276, Cyclopropyl-{4-[6-(thiazolo[4,5-b]pyridin-2-yloxy)-benzofuran-3-ylmethyl]-piperazin-1-yl}-methanone formate] | 77 | 3 |
| c1cnc2nc(Oc3ccc4c(CN5CCN(C6CC6)CC5)coc4c3)sc2c1 [Example 277, 2-[3-(4-Cyclopropyl-piperazin-1-ylmethyl)-benzofuran-6-yloxy]-thiazolo[4,5-b]pyridine] | 130 | 12 |
| c1ccc(CC2CCN(Cc3coc4cc(Oc5nc6ncccc6s5)ccc34)CC2)cc1 [Example 279, 2-[3-(4-Benzyl-piperidin-1-ylmethyl)-benzofuran-6-yloxy]-thiazolo[4,5-b]pyridine] | 130 | 44 |
| c1ccc(C2CCN(Cc3coc4cc(Oc5nc6ncccc6s5)ccc34)CC2)cc1 [Example 280, 2-[3-(4-Phenyl-piperidin-1-ylmethyl)-benzofuran-6-yloxy]-thiazolo[4,5-b]pyridine formate] | 130 | 10 |
| CC1CC(C)CN(Cc2coc3cc(Oc4nc5ncccc5s4)ccc23)C1 (stereo not drawn) [Example 281, 2-[3-(3,5-Dimethyl-piperidin-1-ylmethyl)-benzofuran-6-yloxy]-thiazolo[4,5-b]pyridine formate] | 77 | 28 |
| CN(C)C1CCN(Cc2coc3cc(Oc4nc5ncccc5s4)ccc23)CC1 [Example 282, Dimethyl-{1-[6-(thiazolo[4,5-b]pyridin-2-yloxy)-benzofuran-3-ylmethyl]-piperidin-4-yl}-amine formate] | 72 | 17 |
| c1cnc2nc(Oc3ccc4c(CN5CCC(N6CCCC6)CC5)coc4c3)sc2c1 [Example 283, 2-[3-(4-Pyrrolidin-1-yl-piperidin-1-ylmethyl)-benzofuran-6-yloxy]-thiazolo[4,5-b]pyridine formate] | 130 | 35 |
| c1cnc2nc(Oc3ccc4c(CN5CCC(N6CCCCC6)CC5)coc4c3)sc2c1 [Example 284, 1′-[6-(Thiazolo[4,5-b]pyridin-2-yloxy)-benzofuran-3-ylmethyl]-[1,4′]bipiperidinyl formate] | 160 | 24 |
| c1cnc2nc(Oc3ccc4c(CN5CCC(N6CCOCC6)CC5)coc4c3)sc2c1 [Example 285, 2-[3-(4-Morpholin-4-yl-piperidin-1-ylmethyl)-benzofuran-6-yloxy]-thiazolo[4,5-b]pyridine formate] | 50 | 16 |
| CC1CCN(Cc2coc3cc(Oc4nc5ncccc5s4)ccc23)CC1 [Example 286, 2-[3-(4-Methyl-piperidin-1-ylmethyl)-benzofuran-6-yloxy]-thiazolo[4,5-b]pyridine formate] | 55 | 1 |
| c1ccc(N2CCN(Cc3coc4cc(Oc5nc6ncccc6s5)ccc34)CC2)cc1 [Example 287, 2-[3-(4-Phenyl-piperazin-1-ylmethyl)-benzofuran-6-yloxy]-thiazolo[4,5-b]pyridine formate] | 240 | 26 |
| c1ccc(N2CCN(Cc3coc4cc(Oc5nc6ncccc6s5)ccc34)CC2)nc1 [Example 288, 2-[3-(4-Pyridin-2-yl-piperazin-1-ylmethyl)-benzofuran-6-yloxy]-thiazolo[4,5-b]pyridine formate] | 170 | 19 |
| c1cnc2nc(Oc3ccc4c(CN5CCN(c6ccncc6)CC5)coc4c3)sc2c1 [Example 289, 2-[3-(4-Pyridin-4-yl-piperazin-1-ylmethyl)-benzofuran-6-yloxy]-thiazolo[4,5-b]pyridine formate] | 40 | 4 |
| COc1ccc(N2CCN(Cc3coc4cc(Oc5nc6ncccc6s5)ccc34)CC2)cc1 [Example 290, 2-{3-[4-(4-Methoxy-phenyl)-piperazin-1-ylmethyl]-benzofuran-6-yloxy}-thiazolo[4,5-b]pyridine formate] | 170 | 40 |
| c1ccc(CCN2CCN(Cc3coc4cc(Oc5nc6ncccc6s5)ccc34)CC2)cc1 [Example 291, 2-[3-(4-Phenethyl-piperazin-1-ylmethyl)-benzofuran-6-yloxy]-thiazolo[4,5-b]pyridine formate] | 130 | 14 |
| CC(=O)N1[C@@H]2CC[C@H]1CN(Cc1coc3cc(Oc4nc5ncccc5s4)ccc13)C2 [Example 295, meso-1-{3-[6-(Thiazolo[4,5-b]pyridin-2-yloxy)-benzofuran-3-ylmethyl]-3,8-diaza-bicyclo[3.2.1]oct-8-yl}-ethanone formate] | 55 | 4 |
| c1cnc2nc(Oc3ccc4c(CNC5CC5)coc4c3)sc2c1 [Example 297, Cyclopropyl-[6-(thiazolo[4,5-b]pyridin-2-yloxy)-benzofuran-3-ylmethyl]-amine] | 240 | 19 |

Reference: US8399465B2, “Compounds with two fused bicyclic heteroaryl moieties as modulators of leukotriene A4 hydrolase” (Janssen Pharmaceutica NV, priority 2009, dated 2013)
